{"source": "paper PMC3004530", "about": "(Journal of the American Chemical Society, 2010)", "key": {"HDAC2": {"target": "HDAC2 (Homo sapiens, UniProt Q92769)", "sequence (Q92769 whole entry, species assumed)": "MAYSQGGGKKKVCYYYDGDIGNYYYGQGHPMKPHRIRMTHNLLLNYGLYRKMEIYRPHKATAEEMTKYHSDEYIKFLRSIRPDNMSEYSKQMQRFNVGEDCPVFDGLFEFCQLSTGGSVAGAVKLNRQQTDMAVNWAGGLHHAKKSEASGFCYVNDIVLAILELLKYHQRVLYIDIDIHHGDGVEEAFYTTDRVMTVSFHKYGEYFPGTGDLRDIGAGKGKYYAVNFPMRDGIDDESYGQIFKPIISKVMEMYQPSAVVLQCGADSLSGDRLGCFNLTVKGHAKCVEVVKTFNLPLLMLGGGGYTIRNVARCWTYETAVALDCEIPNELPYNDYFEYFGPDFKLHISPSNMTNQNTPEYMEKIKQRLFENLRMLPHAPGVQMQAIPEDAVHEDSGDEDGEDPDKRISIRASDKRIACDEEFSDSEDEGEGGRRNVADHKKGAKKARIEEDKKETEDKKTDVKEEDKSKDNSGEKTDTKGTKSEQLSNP", "assay": "HDAC2 high-throughput coupled biochemical assay"}, "HDAC3": {"target": "HDAC3 (Homo sapiens, UniProt O15379)", "sequence (O15379 whole entry, species assumed)": "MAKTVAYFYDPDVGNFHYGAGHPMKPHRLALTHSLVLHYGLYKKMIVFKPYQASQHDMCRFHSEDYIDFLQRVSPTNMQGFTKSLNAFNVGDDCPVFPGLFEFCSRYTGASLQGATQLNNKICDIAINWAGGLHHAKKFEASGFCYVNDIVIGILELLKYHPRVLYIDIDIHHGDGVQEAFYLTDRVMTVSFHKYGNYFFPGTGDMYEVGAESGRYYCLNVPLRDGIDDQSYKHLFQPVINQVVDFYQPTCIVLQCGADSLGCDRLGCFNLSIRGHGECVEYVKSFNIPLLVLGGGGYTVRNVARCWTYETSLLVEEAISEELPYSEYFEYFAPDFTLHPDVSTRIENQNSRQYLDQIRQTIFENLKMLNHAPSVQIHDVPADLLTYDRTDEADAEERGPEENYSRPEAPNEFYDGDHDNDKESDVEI", "sequence (Q9Y618 395-489 partner limits assumed, species assumed)": "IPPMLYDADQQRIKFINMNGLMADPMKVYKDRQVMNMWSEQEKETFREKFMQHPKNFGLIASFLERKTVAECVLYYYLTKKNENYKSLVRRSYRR", "assay": "HDAC3 biochemical inhibition assay", "details": "read-out: IC50 HDAC3"}, "HDACs 4-8": {"system": "HDACs 4-8", "assay": "HDAC biochemical inhibition, HDACs 4-8", "details": "data not shown"}, "HDAC1": {"target": "HDAC1 (Homo sapiens, UniProt Q13547)", "sequence (Q13547 whole entry, species assumed)": "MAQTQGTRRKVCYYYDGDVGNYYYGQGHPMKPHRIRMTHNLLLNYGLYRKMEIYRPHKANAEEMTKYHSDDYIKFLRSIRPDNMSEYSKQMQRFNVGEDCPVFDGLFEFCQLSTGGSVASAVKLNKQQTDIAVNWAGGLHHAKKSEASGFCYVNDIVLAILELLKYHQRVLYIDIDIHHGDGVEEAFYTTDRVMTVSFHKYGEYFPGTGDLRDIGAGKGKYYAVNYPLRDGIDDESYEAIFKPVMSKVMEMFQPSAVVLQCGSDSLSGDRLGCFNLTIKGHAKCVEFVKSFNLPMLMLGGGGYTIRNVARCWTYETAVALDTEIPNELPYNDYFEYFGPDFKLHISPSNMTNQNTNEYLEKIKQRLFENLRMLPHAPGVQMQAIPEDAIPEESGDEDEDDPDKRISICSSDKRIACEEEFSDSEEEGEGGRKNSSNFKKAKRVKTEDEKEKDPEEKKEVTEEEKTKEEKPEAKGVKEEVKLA", "assay": "HDAC1 biochemical inhibition assay", "details": "read-out: IC50 HDAC1"}, "HDAC": {"system": "HDAC", "details": "cited from earlier work"}, "HDACs 1, 2 and 3": {"system": "HDACs 1, 2 and 3", "assay": "Mode of inhibition / deacetylation progression", "type": "biochemical"}, "HDAC8": {"target": "HDAC8 (Homo sapiens, UniProt Q9BY41)", "sequence (Q9BY41 whole entry, species assumed)": "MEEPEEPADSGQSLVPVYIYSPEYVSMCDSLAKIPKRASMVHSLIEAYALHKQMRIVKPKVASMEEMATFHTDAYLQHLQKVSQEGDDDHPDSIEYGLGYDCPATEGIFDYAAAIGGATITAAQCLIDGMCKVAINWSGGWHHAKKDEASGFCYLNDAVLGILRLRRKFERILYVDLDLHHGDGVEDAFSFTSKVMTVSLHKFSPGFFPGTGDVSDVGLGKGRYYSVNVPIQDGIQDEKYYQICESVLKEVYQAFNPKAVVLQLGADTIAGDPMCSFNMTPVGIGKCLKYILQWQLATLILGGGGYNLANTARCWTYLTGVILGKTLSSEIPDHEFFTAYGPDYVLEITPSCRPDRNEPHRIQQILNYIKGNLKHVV"}, "HDAC6": {"target": "HDAC6 (Homo sapiens, UniProt Q9UBN7)", "sequence (Q9UBN7 whole entry, species assumed)": "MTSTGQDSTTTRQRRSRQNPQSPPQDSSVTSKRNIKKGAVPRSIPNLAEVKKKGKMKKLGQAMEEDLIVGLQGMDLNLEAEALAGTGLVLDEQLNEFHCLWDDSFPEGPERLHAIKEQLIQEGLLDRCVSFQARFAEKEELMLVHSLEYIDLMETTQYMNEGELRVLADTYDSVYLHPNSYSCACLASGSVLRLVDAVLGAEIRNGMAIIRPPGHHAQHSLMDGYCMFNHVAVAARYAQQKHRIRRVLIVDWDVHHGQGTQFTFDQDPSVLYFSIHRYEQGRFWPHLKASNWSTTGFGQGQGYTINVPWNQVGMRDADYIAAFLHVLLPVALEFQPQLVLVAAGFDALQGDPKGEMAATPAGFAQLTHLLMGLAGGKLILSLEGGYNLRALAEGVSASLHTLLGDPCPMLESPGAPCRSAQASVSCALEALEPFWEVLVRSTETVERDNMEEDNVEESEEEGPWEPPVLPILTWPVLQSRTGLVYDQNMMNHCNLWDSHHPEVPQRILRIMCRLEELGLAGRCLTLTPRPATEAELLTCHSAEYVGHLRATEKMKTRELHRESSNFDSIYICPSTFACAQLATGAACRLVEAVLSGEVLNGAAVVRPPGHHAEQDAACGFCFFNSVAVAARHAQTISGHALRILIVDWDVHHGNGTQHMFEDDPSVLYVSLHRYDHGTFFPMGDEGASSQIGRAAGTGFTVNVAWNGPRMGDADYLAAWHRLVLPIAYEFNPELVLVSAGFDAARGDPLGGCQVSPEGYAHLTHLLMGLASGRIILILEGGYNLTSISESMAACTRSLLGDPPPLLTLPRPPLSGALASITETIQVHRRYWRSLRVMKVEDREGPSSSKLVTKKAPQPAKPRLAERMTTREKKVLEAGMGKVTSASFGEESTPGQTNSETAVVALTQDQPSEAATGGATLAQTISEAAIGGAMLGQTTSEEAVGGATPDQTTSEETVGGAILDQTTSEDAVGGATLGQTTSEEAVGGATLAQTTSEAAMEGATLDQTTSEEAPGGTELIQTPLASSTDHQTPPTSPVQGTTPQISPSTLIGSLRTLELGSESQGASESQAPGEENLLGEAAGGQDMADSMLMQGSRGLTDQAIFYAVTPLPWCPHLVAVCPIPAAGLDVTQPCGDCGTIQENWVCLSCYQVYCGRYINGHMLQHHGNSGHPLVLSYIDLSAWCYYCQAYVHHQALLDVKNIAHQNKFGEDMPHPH"}}, "data": [{"smiles": "C[C@@H]1CCCCO[C@@H](CN(C)Cc2ccc3c(c2)OCO3)[C@H](C)CN([C@@H](C)CO)C(=O)c2cc(N(C)C)ccc2O1", "note": "[entry 1]", "values": [{"measurement": "fold improvement in HDAC2 potency", "setting": "HDAC2; compared to lead stereoisomer (2R,5S,6R,12R)-32", "result": "> 10", "unit": "fold"}, {"measurement": "IC50", "setting": "HDAC2; read-out: IC50 HDAC2", "result": "6.6 ± 0.4", "unit": "µM"}, {"measurement": "IC50", "setting": "HDAC3", "result": "2.7 ± 0.2", "unit": "µM"}, {"measurement": "activity against HDACs 4-8", "setting": "HDACs 4-8", "result": "inactive"}, {"measurement": "IC50", "setting": "HDAC1", "result": "2.7 ± 0.3", "unit": "µM"}]}, {"smiles": "CCC(=O)CCCCC[C@@H]1NC(=O)[C@H]2CCCCN2C(=O)[C@H]([C@@H](C)CC)NC(=O)[C@H](Cc2cn(OC)c3ccccc23)NC1=O", "note": "[Apicidin]", "values": [{"measurement": "HDAC class selectivity", "setting": "HDAC", "result": "selectivity for class I HDACs"}, {"measurement": "potency in HDAC biochemical assay", "setting": "HDAC", "result": "single digit nanomolar potency"}]}, {"smiles": "O=C(CCCCCCC(=O)Nc1ccccc1)NO", "note": "[SAHA]", "values": [{"measurement": "binding kinetics nature (deacetylation progression linear)", "setting": "HDACs 1, 2 and 3", "result": "fast-on/fast-off"}, {"measurement": "inhibition of HDAC8", "setting": "HDAC8", "result": "inhibits"}, {"measurement": "inhibition of HDAC6", "setting": "HDAC6", "result": "inhibits"}]}]}
